# Measured values published in patent publication US12577245B2, “Sulfonyl benzamide derivatives as Bcl-2 inhibitors” (ASCENTAGE PHARMA (SUZHOU) CO., LTD., priority 2021, dated 2026).
# Target: Bcl-2 G101V (Homo sapiens, UniProt P10415, G101V)
# Assay: Bcl-2 G101V inhibition, fluorescence polarization (Flu-BIM tracer) binding assay
# Conditions: FP; 20 nM Bcl2, 5 nM Flu-BIM, 1 h incubation; read-out: Bcl-2 G101V (FP)
row,SMILES,IC50 [nM]
1,"Cc1cscc1C1=C(CN2CCN(c3ccc(C(=O)NS(=O)(=O)c4ccc(NCC5CCOCC5)c([N+](=O)[O-])c4)c(Oc4cnc5[nH]ccc5c4)c3)CC2)CCC(C)(C)C1 [Example 2, 2-((1H-pyrrolo[2,3-b]pyridin-5-yl)oxy)-4-(4-((4,4-dimethyl-2-(4-methylthiophen-3-yl)cyclohex-1-en-1-yl)methyl)piperazin-1-yl)-N-((3-nitro-4-(((tetrahydro-2H-pyran-4-yl)methyl)amino)phenyl)sulfonyl)benzamide]",32.6
2,"CC(C)c1csc(C2=C(CN3CCN(c4ccc(C(=O)NS(=O)(=O)c5ccc(NCC6CCOCC6)c([N+](=O)[O-])c5)c(Oc5cnc6[nH]ccc6c5)c4)CC3)CCC(C)(C)C2)c1 [Example 8, 2-((1H-pyrrolo[2,3-b]pyridin-5-yl)oxy)-4-(4-((2-(4-isopropylthiophen-2-yl)-4,4-dimethylcyclohex-1-en-1-yl)methyl)piperazin-1-yl)-N-((3-nitro-4-(((tetrahydro-2H-pyran-4-yl)methyl)amino)phenyl)sulfonyl)benzamide]",30.9
3,"CC1(C)CCC(CN2CCN(c3ccc(C(=O)NS(=O)(=O)c4ccc(NC[C@H]5CC[C@](C)(O)CC5)c([N+](=O)[O-])c4)c(Oc4cnc5[nH]ccc5c4)c3)CC2)=C(c2cc(-c3ccc(C(F)(F)F)cc3)cs2)C1 [Example 41, 2-((1H-pyrrolo[2,3-b]pyridin-5-yl)oxy)-4-(4-((4,4-dimethyl-2-(4-(4-(trifluoromethyl)phenyl)thiophen-2-yl)cyclohex-1-en-1-yl)methyl)piperazin-1-yl)-N-((4-((((1r,4r)-4-hydroxy-4-methylcyclohexyl)methyl)amino)-3-nitrophenyl)sulfonyl)benzamide]",34.4
4,"CC1(C)CCC(CN2CCN(c3ccc(C(=O)NS(=O)(=O)c4ccc(NCC5CCOCC5)c([N+](=O)[O-])c4)c(Oc4cnc5[nH]ccc5c4)c3)CC2)=C(c2ccsc2-c2ccccc2)C1 [Example 35, 2-((1H-pyrrolo[2,3-b]pyridin-5-yl)oxy)-4-(4-((4,4-dimethyl-2-(2-phenylthiophen-3-yl)cyclohex-1-en-1-yl)methyl)piperazin-1-yl)-N-((3-nitro-4-(((tetrahydro-2H-pyran-4-yl)methyl)amino)phenyl)sulfonyl)benzamide]",47.6
5,"CC1(C)CCC(CN2CCN(c3ccc(C(=O)NS(=O)(=O)c4ccc(NCC5CCOCC5)c([N+](=O)[O-])c4)c(Oc4cnc5[nH]ccc5c4)c3)CC2)=C(c2ccc(CN3CCOCC3)s2)C1 [Example 26, 2-((1H-pyrrolo[2,3-b]pyridin-5-yl)oxy)-4-(4-((4,4-dimethyl-2-(5-(morpholinomethyl)thiophen-2-yl)cyclohex-1-en-1-yl)methyl)piperazin-1-yl)-N-((3-nitro-4-(((tetrahydro-2H-pyran-4-yl)methyl)amino)phenyl)sulfonyl)benzamide]",57.8
6,"CC1(C)CCC(CN2CCN(c3ccc(C(=O)NS(=O)(=O)c4ccc(NC[C@H]5CC[C@](C)(O)CC5)c([N+](=O)[O-])c4)c(Oc4cnc5[nH]ccc5c4)c3)CC2)=C(c2cc(-c3c(F)cc(C(C)(C)O)cc3F)cs2)C1 [Example 63, 2-((1H-pyrrolo[2,3-b]pyridin-5-yl)oxy)-4-(4-((2-(4-(2,6-difluoro-4-(2-hydroxypropan-2-yl)phenyl)thiophen-2-yl)-4,4-dimethylcyclohex-1-en-1-yl)methyl)piperazin-1-yl)-N-((4-((((1r,4r)-4-hydroxy-4-methylcyclohexyl)methyl)amino)-3-nitrophenyl)sulfonyl)benzamide]",32.3
7,"CC1(C)CCC(CN2CCN(c3ccc(C(=O)NS(=O)(=O)c4ccc(NC[C@H]5CC[C@](C)(O)CC5)c([N+](=O)[O-])c4)c(Oc4cnc5[nH]ccc5c4)c3)CC2)=C(c2cc(-c3ccc(F)cc3)cs2)C1 [Example 37, 2-((1H-pyrrolo[2,3-b]pyridin-5-yl)oxy)-4-(4-((2-(4-(4-fluorophenyl)thiophen-2-yl)-4,4-dimethylcyclohex-1-en-1-yl)methyl)piperazin-1-yl)-N-((4-((((1r,4r)-4-hydroxy-4-methylcyclohexyl)methyl)amino)-3-nitrophenyl)sulfonyl)benzamide]",34.9
8,"CC1(C)CCC(CN2CCN(c3ccc(C(=O)NS(=O)(=O)c4ccc(NC[C@H]5CC[C@](C)(O)CC5)c([N+](=O)[O-])c4)c(Oc4cnc5[nH]ccc5c4)c3)CC2)=C(c2cc(CN3CCOCC3)cs2)C1 [Example 24, 2-((1H-pyrrolo[2,3-b]pyridin-5-yl)oxy)-4-(4-((4,4-dimethyl-2-(4-(morpholinomethyl)thiophen-2-yl)cyclohex-1-en-1-yl)methyl)piperazin-1-yl)-N-((4-((((1r,4r)-4-hydroxy-4-methylcyclohexyl)methyl)amino)-3-nitrophenyl)sulfonyl)benzamide]",30.1
9,"CC1(C)CCC(CN2CCN(c3ccc(C(=O)NS(=O)(=O)c4ccc(NC[C@H]5CC[C@@](C)(O)CC5)c([N+](=O)[O-])c4)c(Oc4cnc5[nH]ccc5c4)c3)CC2)=C(c2cc(CN3CCOCC3)cs2)C1 [Example 23, 2-((1H-pyrrolo[2,3-b]pyridin-5-yl)oxy)-4-(4-((4,4-dimethyl-2-(4-(morpholinomethyl)thiophen-2-yl)cyclohex-1-en-1-yl)methyl)piperazin-1-yl)-N-((4-((((1s,4s)-4-hydroxy-4-methylcyclohexyl)methyl)amino)-3-nitrophenyl)sulfonyl)benzamide]",28.2
10,"CC1(C)CCC(CN2CCN(c3ccc(C(=O)NS(=O)(=O)c4ccc(NC[C@H]5COCCO5)c([N+](=O)[O-])c4)c(Oc4cnc5[nH]ccc5c4)c3)CC2)=C(c2cc(-c3ccc(F)cc3F)cs2)C1 [Example 42, (S)—N-((4-(((1,4-dioxan-2-yl)methyl)amino)-3-nitrophenyl)sulfonyl)-2-((1H-pyrrolo[2,3-b]pyridin-5-yl)oxy)-4-(4-((2-(4-(2,4-difluorophenyl)thiophen-2-yl)-4,4-dimethylcyclohex-1-en-1-yl)methyl)piperazin-1-yl)benzamide]",50.7
11,"CC1(C)CCC(CN2CCN(c3ccc(C(=O)NS(=O)(=O)c4ccc(NC[C@H]5COCCO5)c([N+](=O)[O-])c4)c(Oc4cnc5[nH]ccc5c4)c3)CC2)=C(c2cc(Nc3ncccn3)cs2)C1 [Example 19, (S)—N-((4-(((1,4-dioxan-2-yl)methyl)amino)-3-nitrophenyl)sulfonyl)-2-((1H-pyrrolo[2,3-b]pyridin-5-yl)oxy)-4-(4-((4,4-dimethyl-2-(4-(pyrimidin-2-ylamino)thiophen-2-yl)cyclohex-1-en-1-yl)methyl)piperazin-1-yl)benzamide]",40.9
12,"CC1(C)CCC(CN2CCN(c3ccc(C(=O)NS(=O)(=O)c4ccc(NC[C@H]5CC[C@](C)(O)CC5)c([N+](=O)[O-])c4)c(Oc4cnc5[nH]ccc5c4)c3)CC2)=C(c2cc(-c3c(F)ccc(F)c3F)cs2)C1 [Example 54, 2-((1H-pyrrolo[2,3-b]pyridin-5-yl)oxy)-4-(4-((4,4-dimethyl-2-(4-(2,3,6-trifluorophenyl)thiophen-2-yl)cyclohex-1-en-1-yl)methyl)piperazin-1-yl)-N-((4-((((1r,4r)-4-hydroxy-4-methylcyclohexyl)methyl)amino)-3-nitrophenyl)sulfonyl)benzamide]",33.2
13,"CC(C)c1sccc1C1=C(CN2CCN(c3ccc(C(=O)NS(=O)(=O)c4ccc(NCC5CCOCC5)c([N+](=O)[O-])c4)c(Oc4cnc5[nH]ccc5c4)c3)CC2)CCC(C)(C)C1 [Example 11, 2-((1H-pyrrolo[2,3-b]pyridin-5-yl)oxy)-4-(4-((2-(2-isopropylthiophen-3-yl)-4,4-dimethylcyclohex-1-en-1-yl)-methyl)piperazin-1-yl)-N-((3-nitro-4-(((tetrahydro-2H-pyran-4-yl)methyl)amino)-phenyl)sulfonyl)benzamide]",37.6
14,"CC1(C)CCC(CN2CCN(c3ccc(C(=O)NS(=O)(=O)c4ccc(NC[C@H]5CC[C@](C)(O)CC5)c([N+](=O)[O-])c4)c(Oc4cnc5[nH]ccc5c4)c3)CC2)=C(c2cc(-c3ccc(C(F)F)cc3)cs2)C1 [Example 49, 2-((1H-pyrrolo[2,3-b]pyridin-5-yl)oxy)-4-(4-((2-(4-(4-(difluoromethyl)phenyl)thiophen-2-yl)-4,4-dimethylcyclohex-1-en-1-yl)methyl)piperazin-1-yl)-N-((4-((((1r,4r)-4-hydroxy-4-methylcyclohexyl)methyl)amino)-3-nitrophenyl)sulfonyl)benzamide]",43.6
15,"CC1(C)CCC(CN2CCN(c3ccc(C(=O)NS(=O)(=O)c4ccc(NC[C@H]5CC[C@](C)(O)CC5)c([N+](=O)[O-])c4)c(Oc4cnc5[nH]ccc5c4)c3)CC2)=C(c2cc(-c3ccc4c(c3)CCC4(C)O)cs2)C1 (some centres unmarked) [Example 79, 2-((1H-pyrrolo[2,3-b]pyridin-5-yl)oxy)-4-(4-((2-(4-(1-hydroxy-1-methyl-2,3-dihydro-1H-inden-5-yl)thiophen-2-yl)-4,4-dimethylcyclohex-1-en-1-yl)methyl)piperazin-1-yl)-N-((4-((((1r,4r)-4-hydroxy-4-methylcyclohexyl)methyl)amino)-3-nitrophenyl)sulfonyl)benzamide]",22.1
16,"Cc1ccc(C2=C(CN3CCN(c4ccc(C(=O)NS(=O)(=O)c5ccc(NCC6CCOCC6)c([N+](=O)[O-])c5)c(Oc5cnc6[nH]ccc6c5)c4)CC3)CCC(C)(C)C2)s1 [Example 6, 2-((1H-pyrrolo[2,3-b]pyridin-5-yl)oxy)-4-(4-((4,4-dimethyl-2-(5-methylthiophen-2-yl)cyclohex-1-en-1-yl)methyl)piperazin-1-yl)-N-((3-nitro-4-(((tetrahydro-2H-pyran-4-yl)methyl)amino)phenyl)sulfonyl)benzamide]",33.9
17,"CC1(C)CCC(CN2CCN(c3ccc(C(=O)NS(=O)(=O)c4ccc(NC[C@H]5CC[C@](C)(O)CC5)c([N+](=O)[O-])c4)c(Oc4cnc5[nH]ccc5c4)c3)CC2)=C(c2cc(-c3cc(F)c(F)c(F)c3)cs2)C1 [Example 45, 2-((1H-pyrrolo[2,3-b]pyridin-5-yl)oxy)-4-(4-((4,4-dimethyl-2-(4-(3,4,5-trifluorophenyl)thiophen-2-yl)cyclohex-1-en-1-yl)methyl)piperazin-1-yl)-N-((4-((((1r,4r)-4-hydroxy-4-methylcyclohexyl)methyl)amino)-3-nitrophenyl)sulfonyl)benzamide]",49
